Read-outs that look alike come from different tables or passages of the source.
Legend:
[1] = system: P. falciparum stage V gametocytes; assay: Gametocytocidal ATP bioluminescence assay (single point 5 μM and 1 μM, dose-response); format: cell-based, Plasmodium falciparum; details: for Ratio IC50 HepG2/IC50 P. falciparum: IC50 HepG2 divided by IC50 P. falciparum gametocytes
Method: Purified stage IV-V gametocytes were obtained as previously described [10]. Single point ATP bioluminescence assay and dose–response of positive hits was determined in accordance with the previously published protocol [10].

[2] = Cytotoxicity in HepG2 cells (intracellular ATP, ATPlite, 48 h); format: cell-based, human; details: human, HepG2 cells
HepG2 cells = assay: as above; format: cell-based, human; details: IC50 HepG2 divided by IC50 P. falciparum gametocytes
[3] = system: P. falciparum asexual stages; details: cited from earlier work
[4] = system: P. falciparum stage V gametocytes; assay: microbe, parasite or virus in culture; design: BacTiter-Glo ATP luminescence viability of purified stage V gametocytes in 384-well plates, per cent inhibition versus DMSO; details: Plasmodium falciparum, 48 h, read-out: % Inhibition
[5] = Plasmodium falciparum, P. falciparum gametocytes, average, read-out: IC50 Pf Gametocytes average, IC50 (µM) average
[6] = Plasmodium falciparum, sexual stages (gametocytes), dose-response, read-out: IC50 sexual
[7] = HepG2, 48 h exposure, intracellular ATP, read-out: IC50 (μM) Cytotoxicity HepG2
[8] = IC50 per ratio column head, unit inferred, read-out: Cytotoxicity in HepG2
[9] = P. falciparum asexual stages, TCAMS data, read-out: IC50 (µM) Pf asexual stages
[10] = asexual stages, TCAMS data, read-out: IC50 asexual
[11] = sexual stages (gametocytes), dose-response, read-out: IC50 sexual

| SMILES | Ratio IC50 HepG2/IC50 P. falciparum [1] | IC50 [1, 5] | IC50 [1, 6] | IC50 at 48 h [2, 7] | IC50 at 48 h [2, 8] | Ratio IC50 HepG2/IC50 P. falciparum (HepG2 cells) | IC50 [3, 9] | IC50 [3, 10] | IC50 [1, 11] | IC50 ([1]; Plasmodium falciparum, gametocytes (GC), value as repeated in the Clusters sheet, read-out: IC50 GC) | IC50 ([2]; IC50 per ratio column head, unit inferred) | IC50 ([3]; as previously determined for TCAMS, read-out: IC50 (μM) Pf Asexual stages) | IC50 ([1]; Plasmodium falciparum, P. falciparum gametocytes, dose-response, average, read-out: IC50 Pf Gametocytes average IC50 (µM) average) | IC50 at 48 h ([2]; read-out: Cytotoxicity in HepG2 IC50 (µM) Malaria DPU) | inhibition at 5 µM [4] |
| --- | --- | --- | --- | --- | --- | --- | --- | --- | --- | --- | --- | --- | --- | --- | --- |
| CCOc1ccc2nc3cc(NC(=O)c4ccco4)ccc3c(N)c2c1 [TCMDC-125004] | 56 | 0.19 µM | 0.185 µM | 10 µM | 10.3 µM | 56 | 0.8 µM | 0.802 µM |  |  |  |  |  |  |  |
| Oc1ccc(CCNCCCCCCNCCc2ccc(Cl)c3ccccc23)cc1O [TCMDC-131271] | 25 | 0.53 µM |  |  | 13.5 µM | 25 |  | 0.716 µM | 0.533 µM |  |  |  |  |  |  |
| CCN(CC)C(=NCCCCCCN=C(NC(=N)c1ccc(Cl)cc1)N(CC)CC)NC(=N)c1ccc(Cl)cc1 [TCMDC-131806] | 52 | 0.84 µM |  |  | 43.6 µM | 52 |  | 0.381 µM |  |  |  |  |  |  |  |
| CCN(CC)C(=NC(=N)NCCCCCCNC(=N)N=C(Nc1ccc(Cl)cc1)N(CC)CC)Nc1ccc(Cl)cc1 [TCMDC-131807] | >68 | 0.37 µM |  |  | > 25 µM | >68 |  | 0.927 µM | 0.365 µM |  |  |  |  |  |  |
| N=C(N=C(NCCCCCCNC(=NC(=N)Nc1ccc(Cl)cc1)N1CCCCC1)N1CCCCC1)Nc1ccc(Cl)cc1 [TCMDC-131811] | 61 | 0.38 µM |  |  | 22.9 µM | 61 |  | 0.256 µM | 0.375 µM |  |  |  |  |  |  |
| N=C(N=C(NCCCCCCNC(=NC(=N)NCc1ccc(Cl)c(Cl)c1)N1CCCCC1)N1CCCCC1)NCc1ccc(Cl)c(Cl)c1 [TCMDC-131816] | >68 | 0.37 µM |  |  | > 25 µM | >68 |  | 0.567 µM | 0.365 µM |  |  |  |  |  |  |
| CCN(CC)C(=NC(=N)NCc1ccc(Cl)cc1)NCCCCCCNC(=NC(=N)NCc1ccc(Cl)cc1)N(CC)CC [TCMDC-131817] | >32 | 0.79 µM |  |  | > 25 µM | >32 |  | 0.231 µM |  |  |  |  |  |  |  |
| CCCCN(CCCC)C(=NC(=N)NCc1ccc(Cl)c(Cl)c1)NCCCCCCNC(=NC(=N)NCc1ccc(Cl)c(Cl)c1)N(CCCC)CCCC [TCMDC-131821] | 20 | 0.62 µM |  |  | 12.4 µM | 20 |  | 0.399 µM | 0.615 µM |  |  |  |  |  |  |
| COc1cc2c(c(Cl)c1OC)CCN(C(=O)C(F)(F)F)CC2c1ccccc1 (stereo not shown) [TCMDC-132071] | >13 | 1.95 µM |  |  | > 25 µM | >13 | 0.44 µM | 0.441 µM |  |  |  |  |  |  |  |
| Cc1cccc2nc(-c3ccc(-c4ccc(CNCc5ccc(CN)cc5)cc4)s3)[nH]c12 [TCMDC-132809] | 28 | 0.86 µM |  |  | 24 µM | 28 |  | 0.442 µM | 0.855 µM |  |  |  |  |  |  |
| NCc1ccc(CNCc2cccc(-c3ccc(-c4nc5cc(C(F)(F)F)ccc5[nH]4)cc3)c2)cc1 [TCMDC-132811] | 28 | 0.86 µM |  |  | 24.3 µM | 28 |  | 0.261 µM | 0.855 µM |  |  |  |  |  |  |
| FC(F)(F)c1ccc2[nH]c(-c3ccc(-c4cccc(CNCCN5CCNCC5)c4)cc3)nc2c1 [TCMDC-132864] | 16 | 1.08 µM |  | 18 µM | 17.5 µM | 16 | 1.03 µM | 1.03 µM |  |  |  |  |  |  |  |
| CC(C)(C)c1ccc(CN2CCC(CNC(=O)c3cc(-c4cccc(Cl)c4)cs3)C2)cc1 (stereo not shown) [TCMDC-134446] | 19 | 0.61 µM | 0.605 µM | 11 µM | 11.3 µM | 19 | 1.16 µM | 1.16 µM |  |  |  |  |  |  |  |
| CS(=O)(=O)c1cccc(-c2cnc3[nH]cc(-c4cccc(CCN)c4)c3c2)c1 [TCMDC-136307] | >53 | 0.47 µM |  |  | > 25 µM | >53 | 1.56 µM | 1.56 µM |  |  |  |  |  |  |  |
| COc1cc(CCNC(=N)/C=C/c2ccc(Cl)cc2)ccc1Cl [TCMDC-137457] | 50 | 0.28 µM |  |  | 14 µM | 50 |  | 0.241 µM |  |  |  |  |  |  |  |
| CCCCN(CCCC)CCCCNc1c2ccccc2nc2ccccc12 [TCMDC-137461] | 35 | 0.55 µM |  |  | 19 µM | 35 |  | 0.148 µM |  |  |  |  |  |  |  |

| SMILES | Ratio IC50 HepG2/IC50 P. falciparum [1] | IC50 [1, 5] | IC50 [1, 6] | IC50 at 48 h [2, 7] | IC50 at 48 h [2, 8] | Ratio IC50 HepG2/IC50 P. falciparum (HepG2 cells) | IC50 [3, 9] | IC50 [3, 10] | IC50 [1, 11] | IC50 ([1]; Plasmodium falciparum, gametocytes (GC), value as repeated in the Clusters sheet, read-out: IC50 GC) | IC50 ([2]; IC50 per ratio column head, unit inferred) | IC50 ([3]; as previously determined for TCAMS, read-out: IC50 (μM) Pf Asexual stages) | IC50 ([1]; Plasmodium falciparum, P. falciparum gametocytes, dose-response, average, read-out: IC50 Pf Gametocytes average IC50 (µM) average) | IC50 at 48 h ([2]; read-out: Cytotoxicity in HepG2 IC50 (µM) Malaria DPU) | inhibition at 5 µM [4] |
| --- | --- | --- | --- | --- | --- | --- | --- | --- | --- | --- | --- | --- | --- | --- | --- |
| COc1ccc2nc3cc(Cl)ccc3c(NCCCCCCNc3c4ccc(Cl)cc4nc4ccc(OC)cc34)c2c1 [TCMDC-137503] | >500 | 0.05 µM |  |  | > 25 µM | >500 |  | 0.661 µM |  |  |  |  |  |  |  |
| CC(C)CCNC(=N)Nc1ccc(OCCCCCOc2ccc(NC(=N)NCCC(C)C)cc2)cc1 [TCMDC-137614] | >49 | 0.51 µM |  |  | > 25 µM | >49 |  | 1.08 µM | 0.507 µM |  |  |  |  |  |  |
| CC(C)CCNC(=N)Nc1ccc(OCCCOc2ccc(NC(=N)NCCC(C)C)cc2)cc1 [TCMDC-137615] | >86 | 0.29 µM |  |  | > 25 µM | >86 |  | 0.2 µM |  |  |  |  |  |  |  |
| CC1CCCCN1CCCNc1nc(NCc2ccccc2)c2ccccc2n1 (stereo not shown) [TCMDC-137771] | 143 | 0.14 µM |  | 20 µM | 20.1 µM | 143 | 0.95 µM | 0.953 µM |  |  |  |  |  |  |  |
| c1cc(C2=N[C@H]3CCCC[C@@H]3N2)ccc1OCCCOc1ccc(C2=N[C@@H]3CCCC[C@H]3N2)cc1 [TCMDC-137803] | >54 | 0.47 µM |  |  | > 25 µM | >54 |  | 0.731 µM | 0.467 µM |  |  |  |  |  |  |
| CC(=NNC(=S)NCCc1ccccn1)c1ccccn1 [TCMDC-137895] | >17 | 1.49 µM | 1.5 µM |  | > 25 µM | >17 | 0.32 µM | 0.319 µM |  | 1.5 µM |  |  |  |  |  |
| c1ccc2c(c1)cc(CNCCCN1CCN(CCCNCc3cc4ccccc4c4ccccc34)CC1)c1ccccc12 [TCMDC-137914] | 12 | 1.11 µM |  |  |  | 12 |  | 0.204 µM |  |  | 13.7 µM |  |  |  |  |
| CCN(CC)Cc1cc(Nc2c3ccc(Cl)cc3nc3cccc(OC)c23)ccc1O [TCMDC-139222] | >25 | 1 µM | 0.995 µM |  | > 25 µM | >25 | 0.0334 µM | 0.033 µM |  |  |  | 0.03 µM |  |  |  |
| N=C(N)Nc1nc(-c2ccc(NC(=O)Nc3cccc(-c4csc(NC(=N)N)n4)c3)cc2)cs1 [TCMDC-139559] | >17 | 1.43 µM |  |  | > 25 µM | >17 |  | 1.01 µM |  |  |  |  |  |  |  |
| CC(C)CNCc1cccc(-c2cccc(CNCCCN3CCN(C)CC3)c2)c1 [TCMDC-140483] | >16 | 1.56 µM |  |  | > 25 µM | >16 |  | 1.18 µM | 1.56 µM |  |  |  |  |  |  |
| CC(C)CNCc1cccc(-c2cccc(CN(CCN(C)C)C(=O)Nc3ccccc3)c2)c1 [TCMDC-140592] | 24 | 0.66 µM |  |  | 15.8 µM | 24 |  | 0.795 µM |  |  |  |  |  |  |  |
| CN1CCN(CCCN(Cc2ccc(-c3cccc(CNC4CCCC4)c3)cc2)C(=O)Nc2ccccc2)CC1 [TCMDC-140605] | 81 | 0.18 µM |  |  | 14.3 µM | 81 |  | 1.12 µM | 0.177 µM |  |  |  |  |  |  |
| CN1CCN(CCCNCc2cccc(-c3ccc(CNCCc4ccccc4)cc3)c2)CC1 [TCMDC-140643] | 44 | 0.41 µM |  |  | 18.2 µM | 44 |  | 0.781 µM | 0.413 µM |  |  |  |  |  |  |
| Cc1c(Cn2ncc(N3CCC(N)CC3)c(Cl)c2=O)cccc1NC(=O)Nc1ccc(-c2ccccc2)cc1 [TCMDC-141931] | 12 | 1.18 µM |  |  | 14.5 µM | 12 |  | 0.697 µM | 1.18 µM |  |  |  |  |  |  |
| Nc1cc(C=Cc2ccc([N+](=O)[O-])o2)nc2ccccc12 [TCMDC-142295] | 58 | 0.2 µM |  |  | 11.7 µM | 59 | 0.37 µM | 0.367 µM |  |  |  |  | 0.21 µM | 12 µM | 116% |
